Experimental data published in PMC6211316, “Synthesis and biological evaluation of 3-arylcoumarin derivatives as potential anti-diabetic agents” (Journal of Enzyme Inhibition and Medicinal Chemistry, 2018).

tested on: normal mice; experiment: Acute hypoglycemic assay in normal mice; type: in vivo; conditions: 10 mg/kg of bw per os, 0h
Description: STZ-induced diabetic mice and normal mice were placed in single cages with wire-net floors and deprived of food for 12 h before experimentation but allowed free access to tap water throughout. The compounds (at the doses of 10, 30, and 100 mg/kg of bw) were suspended in 0.05% Tween-80 in saline solution. Glibenclamide (10 mg/kg of bw) was suspended in the same vehicle. The target compounds were freshly prepared immediately before experimentation and administered by the intragastrical route at the doses of 10 ml/kg of bw. Control mice received only the vehicle (0.05% Tween-80 in saline solution) by the same route. Blood glucose levels were measured at 0, 1.5, 3, 5, 7, and 9 h after drugs administration.

SMILES	Blood glucose concentration
O=c1oc2ccc(O)cc2cc1-c1ccc(O)cc1 [Compound 17, 6-Hydroxy-3-(4-hydroxyphenyl)-coumarin]	10.6 ± 0.4 mM
COc1ccc(-c2cc3c(O)cc(O)cc3oc2=O)cc1 [Compound 35, 5,7-Dihydroxy-3-(4-methoxyphenyl)-coumarin]	10.8 ± 0.6 mM

same assay, conditions: 10 mg/kg of bw per os, 1.5h

SMILES	% Variation of glycemia	Blood glucose concentration
O=c1oc2ccc(O)cc2cc1-c1ccc(O)cc1 [Compound 17, 6-Hydroxy-3-(4-hydroxyphenyl)-coumarin]	(−23.96) %	7.9 ± 0.7 mM
COc1ccc(-c2cc3c(O)cc(O)cc3oc2=O)cc1 [Compound 35, 5,7-Dihydroxy-3-(4-methoxyphenyl)-coumarin]	(−14.55) %	9.2 ± 0.6 mM

same assay, conditions: 10 mg/kg of bw per os, 3h

SMILES	% Variation of glycemia	Blood glucose concentration
O=c1oc2ccc(O)cc2cc1-c1ccc(O)cc1 [Compound 17, 6-Hydroxy-3-(4-hydroxyphenyl)-coumarin]	(−34.19) %	6.9 ± 0.8 mM
COc1ccc(-c2cc3c(O)cc(O)cc3oc2=O)cc1 [Compound 35, 5,7-Dihydroxy-3-(4-methoxyphenyl)-coumarin]	(−24.15) %	8.2 ± 0.5 mM

same assay, conditions: 10 mg/kg of bw per os, 5h

SMILES	% Variation of glycemia	Blood glucose concentration
O=c1oc2ccc(O)cc2cc1-c1ccc(O)cc1 [Compound 17, 6-Hydroxy-3-(4-hydroxyphenyl)-coumarin]	(−45.37) %	5.7 ± 0.7 mM
COc1ccc(-c2cc3c(O)cc(O)cc3oc2=O)cc1 [Compound 35, 5,7-Dihydroxy-3-(4-methoxyphenyl)-coumarin]	(−25.70) %	8.0 ± 0.4 mM

same assay, conditions: 10 mg/kg of bw per os, 7h

SMILES	% Variation of glycemia	Blood glucose concentration
O=c1oc2ccc(O)cc2cc1-c1ccc(O)cc1 [Compound 17, 6-Hydroxy-3-(4-hydroxyphenyl)-coumarin]	(−48.56) %	5.4 ± 0.5 mM
COc1ccc(-c2cc3c(O)cc(O)cc3oc2=O)cc1 [Compound 35, 5,7-Dihydroxy-3-(4-methoxyphenyl)-coumarin]	(−31.27) %	7.4 ± 0.5 mM

same assay, conditions: 10 mg/kg of bw per os, 9h

SMILES	% Variation of glycemia	Blood glucose concentration
O=c1oc2ccc(O)cc2cc1-c1ccc(O)cc1 [Compound 17, 6-Hydroxy-3-(4-hydroxyphenyl)-coumarin]	(−51.12) %	5.1 ± 0.4 mM
COc1ccc(-c2cc3c(O)cc(O)cc3oc2=O)cc1 [Compound 35, 5,7-Dihydroxy-3-(4-methoxyphenyl)-coumarin]	(−34.06) %	7.1 ± 0.3 mM

same assay, conditions: 30 mg/kg of bw per os, 0h

SMILES	Blood glucose concentration
O=c1oc2ccc(O)cc2cc1-c1ccc(O)cc1 [Compound 17, 6-Hydroxy-3-(4-hydroxyphenyl)-coumarin]	10.8 ± 0.3 mM
COc1ccc(-c2cc3c(O)cc(O)cc3oc2=O)cc1 [Compound 35, 5,7-Dihydroxy-3-(4-methoxyphenyl)-coumarin]	10.5 ± 0.9 mM

same assay, conditions: 30 mg/kg of bw per os, 1.5h

SMILES	% Variation of glycemia	Blood glucose concentration
O=c1oc2ccc(O)cc2cc1-c1ccc(O)cc1 [Compound 17, 6-Hydroxy-3-(4-hydroxyphenyl)-coumarin]	(−18.39) %	8.4 ± 1.0 mM
COc1ccc(-c2cc3c(O)cc(O)cc3oc2=O)cc1 [Compound 35, 5,7-Dihydroxy-3-(4-methoxyphenyl)-coumarin]	(−17.72) %	8.7 ± 1.0 mM

same assay, conditions: 30 mg/kg of bw per os, 3h

SMILES	% Variation of glycemia	Blood glucose concentration
O=c1oc2ccc(O)cc2cc1-c1ccc(O)cc1 [Compound 17, 6-Hydroxy-3-(4-hydroxyphenyl)-coumarin]	(−33.55) %	6.9 ± 0.9 mM
COc1ccc(-c2cc3c(O)cc(O)cc3oc2=O)cc1 [Compound 35, 5,7-Dihydroxy-3-(4-methoxyphenyl)-coumarin]	(−31.65) %	7.2 ± 0.8 mM

same assay, conditions: 30 mg/kg of bw per os, 5h

SMILES	% Variation of glycemia	Blood glucose concentration
O=c1oc2ccc(O)cc2cc1-c1ccc(O)cc1 [Compound 17, 6-Hydroxy-3-(4-hydroxyphenyl)-coumarin]	(−48.71) %	5.3 ± 0.7 mM
COc1ccc(-c2cc3c(O)cc(O)cc3oc2=O)cc1 [Compound 35, 5,7-Dihydroxy-3-(4-methoxyphenyl)-coumarin]	(−39.24) %	6.4 ± 1.0 mM

same assay, conditions: 30 mg/kg of bw per os, 7h

SMILES	% Variation of glycemia	Blood glucose concentration
O=c1oc2ccc(O)cc2cc1-c1ccc(O)cc1 [Compound 17, 6-Hydroxy-3-(4-hydroxyphenyl)-coumarin]	(−48.71) %	5.3 ± 1.1 mM
COc1ccc(-c2cc3c(O)cc(O)cc3oc2=O)cc1 [Compound 35, 5,7-Dihydroxy-3-(4-methoxyphenyl)-coumarin]	(−44.94) %	5.8 ± 0.7 mM

same assay, conditions: 30 mg/kg of bw per os, 9h

SMILES	% Variation of glycemia	Blood glucose concentration
O=c1oc2ccc(O)cc2cc1-c1ccc(O)cc1 [Compound 17, 6-Hydroxy-3-(4-hydroxyphenyl)-coumarin]	(−56.45) %	4.5 ± 0.6 mM
COc1ccc(-c2cc3c(O)cc(O)cc3oc2=O)cc1 [Compound 35, 5,7-Dihydroxy-3-(4-methoxyphenyl)-coumarin]	(−44.30) %	5.9 ± 0.6 mM

same assay, conditions: 100 mg/kg of bw per os, 0h

SMILES	Blood glucose concentration
O=c1oc2ccc(O)cc2cc1-c1ccc(O)cc1 [Compound 17, 6-Hydroxy-3-(4-hydroxyphenyl)-coumarin]	10.4 ± 0.2 mM
COc1ccc(-c2cc3c(O)cc(O)cc3oc2=O)cc1 [Compound 35, 5,7-Dihydroxy-3-(4-methoxyphenyl)-coumarin]	10.6 ± 0.4 mM

same assay, conditions: 100 mg/kg of bw per os, 1.5h

SMILES	% Variation of glycemia	Blood glucose concentration
O=c1oc2ccc(O)cc2cc1-c1ccc(O)cc1 [Compound 17, 6-Hydroxy-3-(4-hydroxyphenyl)-coumarin]	(−25.90) %	7.5 ± 1.2 mM
COc1ccc(-c2cc3c(O)cc(O)cc3oc2=O)cc1 [Compound 35, 5,7-Dihydroxy-3-(4-methoxyphenyl)-coumarin]	(−18.18) %	8.7 ± 0.5 mM

same assay, conditions: 100 mg/kg of bw per os, 3h

SMILES	% Variation of glycemia	Blood glucose concentration
O=c1oc2ccc(O)cc2cc1-c1ccc(O)cc1 [Compound 17, 6-Hydroxy-3-(4-hydroxyphenyl)-coumarin]	(−37.71) %	6.3 ± 0.9 mM
COc1ccc(-c2cc3c(O)cc(O)cc3oc2=O)cc1 [Compound 35, 5,7-Dihydroxy-3-(4-methoxyphenyl)-coumarin]	(−40.44) %	6.3 ± 1.0 mM

same assay, conditions: 100 mg/kg of bw per os, 5h

SMILES	% Variation of glycemia	Blood glucose concentration
O=c1oc2ccc(O)cc2cc1-c1ccc(O)cc1 [Compound 17, 6-Hydroxy-3-(4-hydroxyphenyl)-coumarin]	(−49.18) %	5.2 ± 0.5 mM
COc1ccc(-c2cc3c(O)cc(O)cc3oc2=O)cc1 [Compound 35, 5,7-Dihydroxy-3-(4-methoxyphenyl)-coumarin]	(−49.22) %	5.4 ± 0.6 mM

same assay, conditions: 100 mg/kg of bw per os, 7h

SMILES	% Variation of glycemia	Blood glucose concentration
O=c1oc2ccc(O)cc2cc1-c1ccc(O)cc1 [Compound 17, 6-Hydroxy-3-(4-hydroxyphenyl)-coumarin]	(−53.44) %	4.7 ± 0.4 mM
COc1ccc(-c2cc3c(O)cc(O)cc3oc2=O)cc1 [Compound 35, 5,7-Dihydroxy-3-(4-methoxyphenyl)-coumarin]	(−55.17) %	4.8 ± 0.6 mM

same assay, conditions: 100 mg/kg of bw per os, 9h

SMILES	% Variation of glycemia	Blood glucose concentration
O=c1oc2ccc(O)cc2cc1-c1ccc(O)cc1 [Compound 17, 6-Hydroxy-3-(4-hydroxyphenyl)-coumarin]	(−58.03) %	4.3 ± 0.4 mM
COc1ccc(-c2cc3c(O)cc(O)cc3oc2=O)cc1 [Compound 35, 5,7-Dihydroxy-3-(4-methoxyphenyl)-coumarin]	(−57.05) %	4.6 ± 0.7 mM

tested on: not listed separately; experiment: Oral toxicity to mice (Lorke's method); conditions: both sexes, mouse, in vivo, Kunming mice, observed 14 days
Description: With reference to Lorke’s method, kunming mice were used as targets to estimate the oral toxicity of each compound to mice. We select compounds 11, 17, 25, 28, and 35 at concentrations of 10, 100, and 1000 mg/kg to test their oral toxicity in the first phase, and 1600, 2900, and 5000 mg/kg at the second phase.
Experiments were performed on Kunming mice (male and female half, bw range, 25–30 g). Mice were housed in a climate and light controlled room with a 12 h light/dark cycle. Twelve hours before experiments, food was withheld, but animals had free access to drinking water. The compounds were suspended in vehicle (Tween-80, 0.2% in saline). The concentrations were adjusted to orally administrate 0.2 ml/10 g of bw. Mice were treated in two phases. In the first, intragastric doses of 10, 100 and 1000 mg/kg of bw of compounds were administered. On the second, the doses were adjusted to 1600, 2900, and 5000 mg/kg of bw of compounds. In both phases, mice were observed daily in a period of 14 days for mortality, toxic effects and/or changes in behavioural pattern. At the end of the experiments, the mice were sacrificed in a CO2 chamber.

SMILES	LD50 at 14 days
O=c1oc2ccc(O)cc2cc1-c1ccc(O)cc1 [Compound 17, 6-Hydroxy-3-(4-hydroxyphenyl)-coumarin]	> 5000 mg/kg
COc1ccc(-c2cc3c(O)cc(O)cc3oc2=O)cc1 [Compound 35, 5,7-Dihydroxy-3-(4-methoxyphenyl)-coumarin]	> 5000 mg/kg

tested on: STZ-induced diabetic mice; experiment: Daily treatment for 16 days in STZ-induced diabetic mice; type: in vivo; conditions: 30 mg/kg of bw daily per os, 16 days
Description: Thereafter, the target compounds 11, 17, 35, and glibenclamide were administered once (9 a.m.) on a daily basis, for a period of 16 days, to STZ-induced diabetic mice which were divided into five groups (A-E). A six group of normal mice (Group F) was used as a control. Groups E (diabetic control) and F received vehicle (0.05% Tween-80 in saline solution) per os for 16 days. Group A received glibenclamide (10 mg/kg of bw daily). Groups B–D received different treatments: B, compound 11 (30 mg/kg of bw daily); C, compound 17 (30 mg/kg of bw daily); D, compound 35 (30 mg/kg of bw daily). All tested materials were suspended in the same vehicle and administered per os daily for 16 days. The animals were housed under standard laboratory conditions and maintained with free access to water and food during all the experiment. Blood glucose concentration on animals of diabetic (Groups A–E) and control group (Group F) was estimated at days 1, 4, 7, 10, 13, and 16. The bw of the animals were measured concomitantly to the blood glucose analyses. All experiments were carried out using six animals per group.

SMILES	bw loss in hyperglycemic mice
O=c1oc2ccc(O)cc2cc1-c1ccc(O)cc1 [Compound 17, 6-Hydroxy-3-(4-hydroxyphenyl)-coumarin]	prevented bw loss
COc1ccc(-c2cc3c(O)cc(O)cc3oc2=O)cc1 [Compound 35, 5,7-Dihydroxy-3-(4-methoxyphenyl)-coumarin]	prevented bw loss

same assay, conditions: 30 mg/kg of bw daily, 16 days

SMILES	blood glucose levels at the end of the experiment
COc1ccc(-c2cc3c(O)cc(O)cc3oc2=O)cc1 [Compound 35, 5,7-Dihydroxy-3-(4-methoxyphenyl)-coumarin]	restored blood glucose levels to near normal values

same assay, conditions: 30 mg/kg of bw oral, once a day, for 16 days

SMILES	long-term anti-hyperglycemic effect (blood glucose levels)
O=c1oc2ccc(O)cc2cc1-c1ccc(O)cc1 [Compound 17, 6-Hydroxy-3-(4-hydroxyphenyl)-coumarin]	induced obviously anti-hyperglycemic effect
COc1ccc(-c2cc3c(O)cc(O)cc3oc2=O)cc1 [Compound 35, 5,7-Dihydroxy-3-(4-methoxyphenyl)-coumarin]	induced obviously anti-hyperglycemic effect

tested on: not listed separately; experiment: hydroxyl radical scavenging; conditions: mean ± SD (n = 3), read-out: OH IC50 Value
How it was run: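 Fenton system of H2O2 (0.03%), FeSO4 (2 mmol/L) and salicylic acid (10 mmol/L) with compound solutions (0.4–2.0 mg/mL), incubated 30 min at 37 °C. Absorbance read at 510 nm. % OH scavenging = [A0−(A1−A2)]/A0×100, with A2 a sample blank using ethanol in place of salicylic acid.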

SMILES	IC50
O=c1oc2ccc(O)cc2cc1-c1ccc(O)cc1 [Compound 17, 6-Hydroxy-3-(4-hydroxyphenyl)-coumarin]	> 1000 µM
COc1ccc(-c2cc3c(O)cc(O)cc3oc2=O)cc1 [Compound 35, 5,7-Dihydroxy-3-(4-methoxyphenyl)-coumarin]	270 ± 41.6 µM
